Measured values reported in PubChem BioAssay AID1963973 (Molecular Pharmacology Branch, DTP, NCI, 2024).

Tested on: 883617-216-R-J1-PDC tumor spheroids, viability
Experiment: Anticancer human tumor 883617-216-R-J1-PDC patient-derived bladder carcinoma cell line growth inhibition [PI3K]
Details: spheroids with HUVEC and MSC; for IC50: curve of first compound; for viability, T/C: stronger effect = lower value
In short: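 Three cell types, namely tumor cells, endothelial cells and mesenchymal stem cells, formed each spheroid. Combinations with four PI3K inhibitors were screened at clinically achievable concentrations decreasing by half-log, and spheroid viability was recorded.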

[1] = second compound 0.0316 µM, first compound 0.0316 µM
[2] = second compound 0.0316 µM, first compound 0.1 µM
[3] = second compound 0.1 µM, first compound 0.0316 µM
[4] = second compound 0.1 µM, first compound 0.1 µM
[5] = second compound 0.316 µM, first compound 0.0316 µM
[6] = second compound 0.316 µM, first compound 0.1 µM
[7] = second compound 1 µM, first compound 0.0316 µM
[8] = second compound 1 µM, first compound 0.1 µM
[9] = second compound 3.16 µM, first compound 0.0316 µM
[10] = second compound 3.16 µM, first compound 0.1 µM
[11] = second compound 10 µM, first compound 0.0316 µM
[12] = second compound 10 µM, first compound 0.1 µM
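Further: spheroids exposed to agents for 7 days before the viability read.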

**Q.** With `CC(C)n1nc(-c2ccc3oc(N)nc3c2)c2c(N)ncnc21` + Cc1nc(NC(=O)N2CCCC2C(N)=O)sc1-c1ccnc(C(C)(C)C(F)(F)F)c1 as the compound, how does the IC50 (second compound 0.0316 µM) read?
**A.** 18.3 nM

**Q.** And the IC50 (second compound 0.1 µM)?
**A.** 12.6 nM

**Q.** And the IC50 (second compound 0.316 µM)?
**A.** 0.358 nM

**Q.** And the IC50 (second compound 1 µM)?
**A.** < 0.316 nM

**Q.** What about the IC50 (second compound 3.16 µM) of the same compound?
**A.** < 0.316 nM

**Q.** What about the IC50 (second compound 10 µM) of the same compound?
**A.** < 0.316 nM

**Q.** What about the viability, T/C (second compound 0.0316 µM, first compound 0.000316 µM) of the same compound?
**A.** 79.6%

**Q.** And the viability, T/C (second compound 0.0316 µM, first compound 0.001 µM)?
**A.** 72.5%

**Q.** What about the viability, T/C (second compound 0.0316 µM, first compound 0.00316 µM) of the same compound?
**A.** 69.5%

**Q.** And the viability, T/C (second compound 0.0316 µM, first compound 0.01 µM)?
**A.** 60.3%

**Q.** What about the viability, T/C [1] of the same compound?
**A.** 41.1%

**Q.** What about the viability, T/C [2] of the same compound?
**A.** 18.4%

**Q.** And the viability, T/C (second compound 0.1 µM, first compound 0.000316 µM)?
**A.** 61.9%

**Q.** What about the viability, T/C (second compound 0.1 µM, first compound 0.001 µM) of the same compound?
**A.** 66.6%

**Q.** What about the viability, T/C (second compound 0.1 µM, first compound 0.00316 µM) of the same compound?
**A.** 62.1%

**Q.** What about the viability, T/C (second compound 0.1 µM, first compound 0.01 µM) of the same compound?
**A.** 52.9%

**Q.** And the viability, T/C [3]?
**A.** 35.5%

**Q.** What about the viability, T/C [4] of the same compound?
**A.** 15.7%

**Q.** And the viability, T/C (second compound 0.316 µM, first compound 0.000316 µM)?
**A.** 47.2%

**Q.** And the viability, T/C (second compound 0.316 µM, first compound 0.001 µM)?
**A.** 54%

**Q.** And the viability, T/C (second compound 0.316 µM, first compound 0.00316 µM)?
**A.** 45.2%

**Q.** What about the viability, T/C (second compound 0.316 µM, first compound 0.01 µM) of the same compound?
**A.** 40.6%

**Q.** What about the viability, T/C [5] of the same compound?
**A.** 25.9%

**Q.** What about the viability, T/C [6] of the same compound?
**A.** 12.7%

**Q.** And the viability, T/C (second compound 1 µM, first compound 0.000316 µM)?
**A.** 29.1%

**Q.** And the viability, T/C (second compound 1 µM, first compound 0.001 µM)?
**A.** 24.7%

**Q.** What about the viability, T/C (second compound 1 µM, first compound 0.00316 µM) of the same compound?
**A.** 38.1%

**Q.** What about the viability, T/C (second compound 1 µM, first compound 0.01 µM) of the same compound?
**A.** 22.4%

**Q.** What about the viability, T/C [7] of the same compound?
**A.** 16.4%

**Q.** What about the viability, T/C [8] of the same compound?
**A.** 9.37%

**Q.** And the viability, T/C (second compound 3.16 µM, first compound 0.000316 µM)?
**A.** 16%

**Q.** What about the viability, T/C (second compound 3.16 µM, first compound 0.001 µM) of the same compound?
**A.** 15.7%

**Q.** And the viability, T/C (second compound 3.16 µM, first compound 0.00316 µM)?
**A.** 12.4%

**Q.** And the viability, T/C (second compound 3.16 µM, first compound 0.01 µM)?
**A.** 17.6%

**Q.** And the viability, T/C [9]?
**A.** 9.92%

**Q.** What about the viability, T/C [10] of the same compound?
**A.** 4.95%

**Q.** And the viability, T/C (second compound 10 µM, first compound 0.000316 µM)?
**A.** 7.13%

**Q.** And the viability, T/C (second compound 10 µM, first compound 0.001 µM)?
**A.** 7.02%

**Q.** And the viability, T/C (second compound 10 µM, first compound 0.00316 µM)?
**A.** 8.33%

**Q.** And the viability, T/C (second compound 10 µM, first compound 0.01 µM)?
**A.** 6.52%

**Q.** What about the viability, T/C [11] of the same compound?
**A.** 5.75%

**Q.** And the viability, T/C [12]?
**A.** 2.9%

**Q.** For `CCCS(=O)(=O)Nc1ccc(F)c(C(=O)c2c[nH]c3ncc(-c4ccc(Cl)cc4)cc23)c1F` + Cc1nc(NC(=O)N2CCCC2C(N)=O)sc1-c1ccnc(C(C)(C)C(F)(F)F)c1, which IC50 (second compound 0.0316 µM) is on record?
**A.** 4360 nM

**Q.** What about the IC50 (second compound 0.1 µM) of the same compound?
**A.** 4380 nM

**Q.** What about the IC50 (second compound 0.316 µM) of the same compound?
**A.** 858 nM

**Q.** What about the IC50 (second compound 1 µM) of the same compound?
**A.** < 31.6 nM

**Q.** What about the IC50 (second compound 3.16 µM) of the same compound?
**A.** < 31.6 nM

**Q.** What about the IC50 (second compound 10 µM) of the same compound?
**A.** < 31.6 nM

**Q.** And the viability, T/C [1]?
**A.** 75.6%

**Q.** And the viability, T/C [2]?
**A.** 83.1%

**Q.** And the viability, T/C (second compound 0.0316 µM, first compound 0.316 µM)?
**A.** 88.1%

**Q.** What about the viability, T/C (second compound 0.0316 µM, first compound 1 µM) of the same compound?
**A.** 92.9%

**Q.** What about the viability, T/C (second compound 0.0316 µM, first compound 3.16 µM) of the same compound?
**A.** 66.4%

**Q.** What about the viability, T/C (second compound 0.0316 µM, first compound 10 µM) of the same compound?
**A.** 7.45%

**Q.** What about the viability, T/C [3] of the same compound?
**A.** 84.8%

**Q.** What about the viability, T/C [4] of the same compound?
**A.** 78.3%

**Q.** What about the viability, T/C (second compound 0.1 µM, first compound 0.316 µM) of the same compound?
**A.** 65%

**Q.** And the viability, T/C (second compound 0.1 µM, first compound 1 µM)?
**A.** 74%

**Q.** What about the viability, T/C (second compound 0.1 µM, first compound 3.16 µM) of the same compound?
**A.** 66%

**Q.** And the viability, T/C (second compound 0.1 µM, first compound 10 µM)?
**A.** 9.98%

**Q.** What about the viability, T/C [5] of the same compound?
**A.** 53.6%

**Q.** And the viability, T/C [6]?
**A.** 55.1%

**Q.** What about the viability, T/C (second compound 0.316 µM, first compound 0.316 µM) of the same compound?
**A.** 51.4%

**Q.** What about the viability, T/C (second compound 0.316 µM, first compound 1 µM) of the same compound?
**A.** 49.2%

**Q.** And the viability, T/C (second compound 0.316 µM, first compound 3.16 µM)?
**A.** 39.8%

**Q.** And the viability, T/C (second compound 0.316 µM, first compound 10 µM)?
**A.** 10.4%

**Q.** And the viability, T/C [7]?
**A.** 33.3%

**Q.** What about the viability, T/C [8] of the same compound?
**A.** 26.5%

**Q.** And the viability, T/C (second compound 1 µM, first compound 0.316 µM)?
**A.** 34.3%

**Q.** What about the viability, T/C (second compound 1 µM, first compound 1 µM) of the same compound?
**A.** 39.8%

**Q.** And the viability, T/C (second compound 1 µM, first compound 3.16 µM)?
**A.** 35.9%

**Q.** What about the viability, T/C (second compound 1 µM, first compound 10 µM) of the same compound?
**A.** 7.76%

**Q.** And the viability, T/C [9]?
**A.** 16.6%

**Q.** What about the viability, T/C [10] of the same compound?
**A.** 16.3%

**Q.** And the viability, T/C (second compound 3.16 µM, first compound 0.316 µM)?
**A.** 17.8%

**Q.** What about the viability, T/C (second compound 3.16 µM, first compound 1 µM) of the same compound?
**A.** 19.3%

**Q.** What about the viability, T/C (second compound 3.16 µM, first compound 3.16 µM) of the same compound?
**A.** 16.6%

**Q.** And the viability, T/C (second compound 3.16 µM, first compound 10 µM)?
**A.** 7.14%

**Q.** What about the viability, T/C [11] of the same compound?
**A.** 7.33%

**Q.** And the viability, T/C [12]?
**A.** 7.82%

**Q.** And the viability, T/C (second compound 10 µM, first compound 0.316 µM)?
**A.** 7.92%

**Q.** What about the viability, T/C (second compound 10 µM, first compound 1 µM) of the same compound?
**A.** 10%

**Q.** And the viability, T/C (second compound 10 µM, first compound 3.16 µM)?
**A.** 9.86%

**Q.** And the viability, T/C (second compound 10 µM, first compound 10 µM)?
**A.** 4.55%
